{"source": "patent US12716904B2", "about": "“Compositions and methods for the detection of tuberculosis” (Washington University, priority 2021, dated 2026)", "key": {"[1]": {"test_system": "M. tuberculosis (H37Rv strain)", "test": "Mtb growth in minimal media with a defined sole carbon source", "settings": "100 μg/mL"}, "[2]": {"test_system": "M. tuberculosis (H37Rv strain)", "test": "Direct effect of cholestenone on Mtb growth in broth culture (absorbance, CFU)", "settings": "bacilli growing in broth culture"}, "[3]": {"test_system": "Helicobacter pylori", "settings": "recent work; cited from earlier work"}, "[4]": {"test_system": "Mtb isocitrate lyase(s)", "settings": "Mtb enzyme, methylcitrate cycle; cited from earlier work"}, "[5]": {"test_system": "host and Mtb methylmalonyl-CoA mutase", "settings": "host and Mtb enzyme; cited from earlier work"}}}
{"smiles": "C[C@H](CCCC(C)(C)O)[C@H]1CC[C@H]2[C@@H]3CC=C4C[C@@H](O)CC[C@]4(C)[C@H]3CC[C@]12C", "note": "[25-HC, 25-hydroxycholesterol]", "values": [{"measurement": "growth of Mtb with the substance as sole carbon source", "setting": "[1]", "result": "grew"}]}
{"smiles": "CC(C)CCC[C@@H](C)[C@H]1CC[C@H]2[C@@H]3CCC4=CC(=O)CC[C@]4(C)[C@H]3CC[C@]12C", "note": "[cholestenone, 4-cholesten-3-one]", "values": [{"measurement": "direct antimicrobial activity (toxicity) against Mtb", "setting": "[2]", "result": "not directly toxic to Mtb"}, {"measurement": "antimicrobial activity against Helicobacter pylori", "setting": "[3]", "result": "has antimicrobial activity"}]}
{"smiles": "C=C(CC(=O)O)C(=O)O", "note": "[itaconate, itaconic acid]", "values": [{"measurement": "inhibition of isocitrate lyase(s)", "setting": "[4]", "result": "inhibits"}, {"measurement": "inhibition of methylmalonyl-CoA mutase", "setting": "[5]", "result": "inhibits"}]}
{"smiles": "CC(C)CCC[C@@H](C)[C@H]1CC[C@H]2[C@@H]3CC=C4C[C@@H](O)CC[C@]4(C)[C@H]3CC[C@]12C", "note": "[cholesterol]", "values": [{"measurement": "growth of Mtb with the substance as sole carbon source", "setting": "[1]", "result": "grew"}]}
